Test results published in patent US6518302B1, “Remedies” (Takara Shuzo Co., Ltd., priority 1999, dated 2003).
Read-outs that look alike come from different tables or passages of the source.

Tests used:
[1] = tested on: HL-60 (ATCC CCL-240) cells; test: Analysis of DNA fragmentation; type: cell-based, Human; conditions: HL-60 cells, cultured for 24 or 48 hours (time not given)
Experimental: HL-60 (ATCC CCL-240) cells were cultured at 37° C. in RPMI 1640 medium (Bio Whittaker) containing 10% fetal calf serum (JRH) which had been treated at 56° C. for 30 minutes and suspended in RPMI 1640 medium at a concentration of 2.5×10^5 cells/4.5 ml. […] each of aqueous solutions of the compound (2) at a concentration of 10, 50 or 100 mM, the compound (7) at a concentration of 500, 1000 or 1500 μM, the compound (9) at a concentration of 750, 1500 or 3000 μM, the compound (11) at a concentration of 750, 1500 or 3000 μM, or the compound (14) at a concentration of 750, 1500 or 3000 μM was added to 4.5 ml of the suspension. The mixtures were incubated at 37° C. for 24 hours in the presence of 5% CO2. Measurement of apoptotic cells using FACScan as described in Saibo Kogaku, Bessatsu (Cell Technology, Suppl.) Jikken Protocol Series: Apoptosis Jikken Protocol (Experimental Protocol Series: Experimental Protocols for Apoptosis) (Shujun-sha) pp. 129-130 and analysis of DNA fragmentation as described in Bio Manual UP Series: […] Apoptosis Jikken-ho (Bio Manual UP Series: Current Experimental Methods for Apoptosis) (Yodo-sha) pp. 61-63 were carried out using cells cultured for 24 or 48 hours in the same manner as that described above.

[2] = tested on: HL-60 cells (ATCC CCL-240); test: Proliferation of HL-60 cells with or without hydroxyurea G1 arrest (WST-1); type: cell-based, Human; conditions: Homo sapiens, 48 hours
Experimental: HL-60 cells (ATCC CCL-240) were suspended in RPMI 1640 medium (Bio Whittaker, 12-702F) containing 10% fetal calf serum (Gibco) and 100 μM hydroxyurea at a concentration of 5×10^5 cells/ml. 20 ml of the suspension was added to a 10-cm Petri dish. The dish was incubated at 37° C. overnight in the presence of 5% CO2 to make the cells arrest at G1 phase. The cells were collected by centrifugation and resuspended in RPMI 1640 medium containing 10% fetal calf serum (Gibco) and 100 μM hydroxyurea at a concentration of 5×10^5 cells/ml. 5 ml of the suspension was added to each well of a 6-well microtiter plate. On the other hand, as cells without the treatment with hydroxyurea, HL-60 cells were suspended in RPMI 1640 medium containing 10% fetal calf serum (Gibco) at a concentration of 1×10^5 cells/ml. 5 ml of the suspension was added to each well of a 6-well microtiter plate. 50 μl of a solution containing DGE at a concentration of 30, 22.5, 15 or 7.5 mM in water, 25 μl of a solution containing the compound (7) at a concentration of 60, 45, 30 or 15 mM in dimethyl sulfoxide, or 25 μl of a solution containing the compound (17) at a concentration of 100, 75, 50 or 25 mM in dimethyl sulfoxide was added to the well containing the cells treated with hydroxyurea. 50 μl of a solution containing DGE at a concentration of 8, 6, 4 or 2 mM in water, 25 μl of a solution containing the compound (7) at a concentration of 30, 22.5, 15 or 7.5 mM in dimethyl sulfoxide, or 25 μl of a solution containing the compound (17) at a concentration of 80, 60, 40 or 20 mM in dimethyl sulfoxide was added to the well containing the cells without the treatment with hydroxyurea. The plate was incubated for additional 48 hours. Cells collected by centrifuging the culture were suspended in 5 ml of fresh RPMI 1640 medium containing 10% fetal calf serum (Gibco). 100 μl of the suspension was used for measuring viable cell number using Premix WST-1 Cell Proliferation Assay System (Takara Shuzo, MK400).
For each of the samples, the concentration at which 50% of the proliferation is inhibited (IC50) for the cells treated with hydroxyurea was higher than that for the cells without the treatment with hydroxyurea. Table 3 summarizes IC50 (μM) for each of the samples. […] Since most of cells in a living body are arrested at G1 phase, it is considered that DGE and R-AhGal compounds (precursors of DGE) are agents less toxic to a living body.

[3] = Conversion into DGE in culture medium (thin-layer chromatography); type: in vitro ADME; conditions: 10 mM in RPMI 1640 medium with 10% calf serum, 37° C., 4 hours
Experimental: The compound (7) or the compound (9) synthesized in Example 1 was dissolved at a final concentration of 10 mM in RPMI 1640 medium supplemented with 10% calf serum. These samples were allowed to stand at 37° C. for 4 hours. […] each of the samples was then subjected to thin-layer chromatography using chloroform:methanol=5:1 as a developing solvent. Detection was carried out using orcinol-sulfuric acid.
For each sample, a spot with Rf value of 0.5, the same value as that for the compound of general formula IV in which Z is CH2OH and Y is H (L-glycero-1,5-epoxy-1αβ,6-dihydroxy-cis-hex-3-en-2-one, hereinafter referred to as DGE), was detected.

[4] = HL-60 cells arrested at G1 phase with 100 μM hydroxyurea, read-out: IC50, Cells treated with hydroxyurea
[5] = HL-60 cells, read-out: IC50, Cells without treatment with hydroxyurea

IC50 [2, 4] | IC50 [2, 5] | conversion into DGE (spot with Rf value of 0.5, the same value as DGE) [3] | Structure (SMILES) | final concentration at which DNA fragmentation was observed [1]
151 µM | 79.1 µM | – | O=C[C@H](O)[C@H]1OC[C@@H](O)[C@@H]1OC(=O)c1ccccc1 [Compound (7), 4-O-benzoyl-3,6-anhydro-D-galactose] | ≥ 100 µM
– | – | conversion into DGE was also observed | OCC1OC(OC2C(CO)OC(OC3C(CO)OC(OC4C(O)COC4C(O)C(O)O)C(O)C3O)C(O)C2O)C(O)C(O)C1O [Compound (14), 4-O-β-maltotoriosyl-3,6-anhydro-D-galactose] | ≥ 75 µM
264 µM | 190 µM | conversion into DGE was also observed | O=C[C@H](O)[C@H]1OC[C@@H](O)[C@@H]1OCc1ccccc1 [Compound (17), 4-O-benzyl-3,6-anhydro-D-galactose] | –
